Data set [1] concerns Cloudman S91 mouse melanoma cell line. The data set can be described thus: Cell count (proliferation, toxicity) of treated S91 cells. It is filed as cell-based. As for the experimental part: (§1) The Cloudman S91 mouse melanoma cell line was obtained from American Type Culture Collection (ATCC). Cells were cultured in Dulbecco's Modified Eagles Medium (DMEM) containing 10% calf serum, 2 mM L-glutamine, 10 U Penicillin/ml and 10 ug Streptomycin/ml according to a previously published protocol (Eller, et al., Proc. Natl. Acad. Sci. 93:1087-92. 1996). For testing propylene glycol and analogues for induction of melanogenesis, S91 cells were plated at 10^5 cells/35 mm dish in 10% calf serum. One day after plating, media was removed and replaced with media containing 2% calf serum and test compounds (Eller, et al., 1996). Cells were cultured for 6 days at 37° C. in 5% CO2 in a humidified incubator. Following this treatment period, cells were examined microscopically and the portion of dedifferentiated and differentiated cells was estimated. Previous studies have shown that dedifferentiated S91 cells have a rounded, spindly appearance while differentiated S91 cells have a flattened, cuboidal, multipolar and dendritic appearance (Orlow, et al., Exp. Cell Res. 191:209-218, 1990).
(§2) Following this microscopic examination, cells were detached from dishes by trypsin. The time required for detachment by trypsin was recorded as an additional indicator of the phenotypic effects of test compounds. For each treatment, a subsample of cells was counted to determine the effects of treatment compounds on cellular proliferation. The remainder of cells were used for determination of melanin content. Melanin was extracted from cells by vortexing for 15 min in 1N NaOH. Standards were prepared by dissolving melanin (Sigma) in 1 N NaOH (Eller, et al., 1996). Absorbance of standards and samples was measured at 475 nm. Melanin was expressed as pg melanin/cell.

Data set [2] shares this test system. The data set can be described thus: Trypsinization detachment time of S91 cells. The format is cell-based. The protocol: as §2
Data set [3] shares this test system. The data set can be described thus: Microscopic morphology (differentiation) of S91 cells. It is filed as cell-based. As for the experimental part:
as §1

The test system is the same in data set [4]. The data set can be described thus: Melanin content of S91 cells after treatment with test compound. The format is cell-based. As to conditions: for induction of melanogenesis (in words): concentrations tested in Example 2. The protocol: The Cloudman S91 mouse melanoma cell line was obtained from American Type Culture Collection (ATCC). […] For testing propylene glycol and analogues for induction of melanogenesis, S91 cells were plated at 10^5 cells/35 mm dish in 10% calf serum. […] Cells were cultured for 6 days at 37° C. in 5% CO2 in a humidified incubator. Following this treatment period, cells were examined microscopically and the portion of dedifferentiated and differentiated cells was estimated.
Following this microscopic examination, cells were detached from dishes by trypsin. The time required for detachment by trypsin was recorded as an additional indicator of the phenotypic effects of test compounds. For each treatment, a subsample of cells was counted to determine the effects of treatment compounds on cellular proliferation. The remainder of cells were used for determination of melanin content. […] Absorbance of standards and samples was measured at 475 nm. Melanin was expressed as pg melanin/cell.

For data set [5], the system named is American short-haired guinea pigs. The data set can be described thus: Topical melanogenesis (pigmentation rating) in guinea pigs. It is filed as in vivo, guinea pig. More on the design: Pigmentation Rating / Pigmentation Rating Background Corrected: scale not given here. As to conditions: for melanogenesis in guinea pigs (in words): same relative body position; for relative melanogenesis rating (mean ±SE), scale 0-4: 25 μl twice per day for 5 days, rated two weeks after. The protocol: Compounds were tested for melanogenic activity in vivo by application to American short-haired guinea pigs. Treatment sites were created by removal of fur using Nair® brand depilatory. In the Table, the numbers presented are the relative melanogenesis rating (mean ±SE), and are arranged according to the relative location on the animal, with the head being to the left and the tail being to the right. Propylene glycol (PG=13.6M), 2,3-butanediol (2,3-BD=10.95M), and 1,2-cis-cyclopentanediol (1,2-cs-CPD=10.7M) were applied as full strength solutions. 3,3-dimethyl-1,2-butanediol (3,3-M-1,2-BD) was applied as a 4M solution dissolved in ethanol. Two weeks following cessation of treatments, the degree of pigmentation was subjectively rated according to the following scale:
In order to minimize the effects of dimunition of response from head to tails of animals, all future experiments were done using only treatment spots located towards the tails of animals (c and d in Table 7). Deemed as additionally beneficial, in this area of the animal differences of responsiveness to strong and weak inducers of pigmentation, as deduced from cell culture, were greatest. […] Pigmentation ratings were corrected for background (control treatment spots), normalized to 1M to account for the different amounts of each agent applied, and then normalized to results for 1,2-PG (Table 8). […] It is anticipated that further improvements in formulation will additionally improve responsiveness to 5-NBene-2,2-DM and other compounds in this invention.
In FIG. 5, a, b, c and d indicate treatment spots that transverse the anterior-posterior axis along the backs of guinea pigs.

Where [6] appears, read: No Penetration Enhancer, concentrations as E85.

As to `C[C@H](O)CO` [PG-S-1,2, (S)-(+)-1,2-Propanediol], the “Cells (×10^6)” value in data set [1] (50 mM) is 0.088 ×10^6; in data set [1] (150 mM), 0.080 ×10^6. Further, in data set [1] (levels used in this experiment (50 and 150 mM)), the “effect on cell proliferation” value is listed as “no reduction of cell proliferation”. The “Trypsinization Detachment Time” value in data set [2] (50 mM) was found to be 3 min; in data set [2] (150 mM), 6 min. Moreover, the “Morphology Flattened Cuboidal” value in data set [3] (50 mM) is given as 25%; in data set [3] (150 mM), 50%. For the same compound, the figures for the “Morphology Rounded Spindly” value in data set [3] (50 mM) and in data set [3] (150 mM) were 75% and 50%, respectively. Also, the “pg Melanin/Cell” value in data set [4] (50 mM) stood at 17.1 pg Melanin/Cell; in data set [4] (150 mM) it was 25.5 pg Melanin/Cell. The “ug Melanin” value in data set [4] (50 mM) stood at 1.51 µg; in data set [4] (150 mM), 2.04 µg.
Take `CC(CO)CO` [2-M-1,3-PG, 2-Methyl-1,3-Propanediol]: in data set [5] (setting [6]), the “Pigmentation Rating Normalized to 1,2-PG” value stood at 2.9 ± 0.4 and the “Pigmentation Rating Normalized to 1M” value worked out at 0.044 ± 0.006. For the same compound, the “Pigmentation Rating Background Corrected” value in data set [5] (No Penetration Enhancer, corrected for Nair control, concentrations as E85) came out at 0.50 ± 0.07. Also, the “Pigmentation Rating” value in data set [5] (No Penetration Enhancer, sites c and d, 13.61M 1,2-PG, 11.0M 2,3-M-2,3-BD, 11.3M 2-M-1,3-PG, 8.7M 1,2-cs-CPD, 4.0M 3,3-M-1,2-BD) was 0.58 ± 0.08. For the same compound, the “melanogenesis in guinea pigs (in words)” value in data set [5] is given as “only slightly better melanogenic agents than propylene glycol”. For the same compound, the “relative melanogenesis rating (mean ±SE), scale 0-4” value in data set [5] (site a (head), PG 13.6M, 2,3-BD 10.95M, 1,2-cs-CPD 10.7M full strength, 3,3-M-1,2-BD 4M in ethanol) is listed as 1.25 ± 0.52. In data set [5] (site c, full strength, 3,3-M-1,2-BD 4M in ethanol), the “relative melanogenesis rating (mean ±SE), scale 0-4” value is recorded as 0.58 ± 0.08^2. Besides, in data set [4], the “Concentration Required for ≧2-fold Melanin Induction in S91 Cells” value is on record as 50 mM.
On to `OCC(O)CO` [G, Glycerol], for which the “Cells (×10^6)” value in data set [1] (50 mM) is reported as 0.092 ×10^6; in data set [1] (150 mM), 0.084 ×10^6. Also, the “Trypsinization Detachment Time” value in data set [2] (50 mM) and in data set [2] (150 mM) was 3 min each time. Further, the results for the “Morphology Rounded Spindly” value in data set [3] (50 mM) and in data set [3] (150 mM) were 100% and 75%, respectively. Moreover, the “Morphology Flattened Cuboidal” value in data set [3] (150 mM) was determined as 25%. The “pg Melanin/Cell” value is on record as 11.2 pg Melanin/Cell in data set [4] (50 mM) and 13.0 pg Melanin/Cell in data set [4] (150 mM). Further, the “ug Melanin” value in data set [4] (50 mM) was determined as 1.03 µg; in data set [4] (150 mM), 1.09 µg. Further, the “induction of melanogenesis (in words)” value in data set [4] is “only a slight effect on melanogenesis and differentiation”.
On to `CC(O)C(C)O` (stereo not shown) [BD-2,3, 2,3-butanediol], for which the entries for the “Cells (×10^6)” value in data set [1] (50 mM) and in data set [1] (150 mM) were 0.072 ×10^6 and 0.040 ×10^6, respectively. The “reduction of cell numbers” value in data set [1] (150 mM) is “one-third”. The “melanogenesis in guinea pigs (in words)” value in data set [5] is given as “only slightly better melanogenic agents than propylene glycol”. Moreover, the “relative melanogenesis rating (mean ±SE), scale 0-4” value in data set [5] (site b, full strength solutions) is on record as 1.33 ± 0.17^2; in data set [5] (site d (tail), full strength solutions) it was 0.25 ± 0.14. Also, the entries for the “Trypsinization Detachment Time” value in data set [2] (50 mM) and in data set [2] (150 mM) were 3 min and 9 min, respectively. Besides, the “Morphology Flattened Cuboidal” value in data set [3] (50 mM) was 75%; in data set [3] (150 mM) it was 100%. Besides, in data set [3] (50 mM), the “Morphology Rounded Spindly” value was 25%. Besides, the “Concentration Required for ≧2-fold Melanin Induction in S91 Cells” value in data set [4] turned out to be 100 mM. Further, the “pg Melanin/Cell” value in data set [4] (50 mM) was 15.6 pg Melanin/Cell; in data set [4] (150 mM) it was 23.8 pg Melanin/Cell. Moreover, the “ug Melanin” value was determined as 1.12 µg in data set [4] (50 mM) and 0.95 µg in data set [4] (150 mM).
As to `O=C1CCCN1` [2-pyrrolidone], the “morphological differentiation of S91 cells” value in data set [3] is “profound morphological differentiation”. In addition, in data set [4] (range of concentrations up to a toxic dose), the “melanogenesis in S91 cells (≧2-fold increase = significant)” value is “did not induce significant (≧2-fold increase) melanogenesis”.
Take `CCO` [ETOH, Ethanol]: in data set [1] (340 mM), the effect on cells result is “no effect on cells”. Further, the “toxicity (low cell survival)” value in data set [1] (850 mM) is given as “toxic”. Besides, the “Cells (×10^6)” value in data set [1] (1.0% (170 mM)) is recorded as 0.104 ×10^6; in data set [1] (2.0% (340 mM)), 0.100 ×10^6; in data set [1] (5.0% (850 mM)) it was 0.032 ×10^6. Besides, the “Trypsinization Detachment Time” value in data set [2] (1.0% (170 mM)), in data set [2] (2.0% (340 mM)) and in data set [2] (5.0% (850 mM)) was 3 min throughout. Also, the “Morphology Rounded Spindly” value in data set [3] (1.0% (170 mM)), in data set [3] (2.0% (340 mM)) and in data set [3] (5.0% (850 mM)) was 100% in each case. Besides, the “pg Melanin/Cell” value in data set [4] (1.0% (170 mM)) was found to be 11.0 pg Melanin/Cell; in data set [4] (2.0% (340 mM)), 12.5 pg Melanin/Cell; in data set [4] (5.0% (850 mM)), 5.3 pg Melanin/Cell. The figures for the “ug Melanin” value in data set [4] (1.0% (170 mM)), in data set [4] (2.0% (340 mM)) and in data set [4] (5.0% (850 mM)) were 1.14 µg, 1.25 µg and 0.17 µg, respectively. The “induction of melanogenesis (in words)” value in data set [4] is listed as “did not induce melanogenesis”.
Consider `OCCCO` [PG-1,3, 1,3-propanediol], for which the “Cells (×10^6)” value in data set [1] (50 mM) is listed as 0.064 ×10^6; in data set [1] (150 mM), 0.044 ×10^6. For the same compound, in data set [1] (150 mM), the “reduction of cell numbers” value is “one-third”. The “Trypsinization Detachment Time” value is recorded as 3 min in data set [2] (50 mM) and 6 min in data set [2] (150 mM). In addition, the entries for the “Morphology Flattened Cuboidal” value in data set [3] (50 mM) and in data set [3] (150 mM) were 25% and 50%, respectively. The “Morphology Rounded Spindly” value in data set [3] (50 mM) is reported as 75%; in data set [3] (150 mM), 50%. Besides, the “pg Melanin/Cell” value came to 20.4 pg Melanin/Cell in data set [4] (50 mM) and 23.6 pg Melanin/Cell in data set [4] (150 mM). The “ug Melanin” value in data set [4] (50 mM) came out at 1.31 µg; in data set [4] (150 mM), 1.04 µg.
Regarding `CC(O)CCO` (stereo not shown) [BD-1,3, 1,3-butanediol], the “Cells (×10^6)” value in data set [1] (50 mM) is reported as 0.064 ×10^6; in data set [1] (150 mM), 0.048 ×10^6. Also, the “reduction of cell numbers” value in data set [1] (150 mM) is “one-third”. Besides, the entries for the “Trypsinization Detachment Time” value in data set [2] (50 mM) and in data set [2] (150 mM) were 3 min and 6 min, respectively. Moreover, the entries for the “Morphology Flattened Cuboidal” value in data set [3] (50 mM) and in data set [3] (150 mM) were 75% and 100%, respectively. Moreover, the “Morphology Rounded Spindly” value in data set [3] (50 mM) is on record as 25%. Moreover, the “pg Melanin/Cell” value in data set [4] (50 mM) is 15.5 pg Melanin/Cell; in data set [4] (150 mM), 18.1 pg Melanin/Cell. The “ug Melanin” value in data set [4] (50 mM) was found to be 0.99 µg; in data set [4] (150 mM) it was 0.87 µg.

Source of the values: patent US7250157B2, “Dermatological compositions and methods” (Applied Genetics Incorporated Dermatics, priority 1996, dated 2007).
